In PubChem BioAssay (NCI):
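The compound was tested at five concentrations on cells cultured in 96-well plates, with a 48-hour exposure period. The concentration for 50% growth inhibition is given as GI50. TGI marks complete inhibition of growth.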

Columns and labels:
Assay in all cases: NCI-60 cell line screen, 48 h
[1] = test system: A498 renal
[2] = test system: UACC-257 melanoma
[3] = test system: MDA-MB-231 breast
[4] = test system: RPMI-8226 leukemia
[5] = test system: CCRF-CEM leukemia
[6] = test system: MOLT-4 leukemia
[7] = test system: SF-295 CNS
[8] = test system: MCF7 breast
[9] = test system: MDA-MB-435
[10] = test system: NCI-H460 lung
[11] = test system: T-47D breast
[12] = test system: IGROV1 ovarian
[13] = test system: SN12C renal
[14] = test system: SF-539 CNS
[15] = test system: HS 578T breast
[16] = test system: A549 NSCLC
[17] = test system: SW-620 colon
[18] = test system: NCI/ADR-RES ovarian
[19] = test system: UACC-62 melanoma
[20] = test system: M14 melanoma
[21] = test system: KM12 colon
[22] = test system: HCT-116 colon
[23] = test system: NCI-H226 lung
[24] = test system: ACHN renal
[25] = test system: SR leukemia
[26] = test system: UO-31 renal
[27] = test system: SK-MEL-28 melanoma
[28] = test system: 786-0 renal
[29] = test system: HL-60(TB) leukemia
[30] = test system: LOX IMVI melanoma
[31] = test system: MALME-3M melanoma
[32] = test system: SNB-75 CNS
[33] = test system: COLO 205 colon
[34] = test system: HCT-15 colon
[35] = test system: HCC-2998 colon
[36] = test system: PC-3 prostate
[37] = test system: SK-MEL-2 melanoma
[38] = test system: K-562 leukemia
[39] = test system: SK-OV-3 ovarian
[40] = test system: SK-MEL-5 melanoma
[41] = test system: OVCAR-3 ovarian
[42] = test system: HOP-62 NSCLC
[43] = test system: DU-145 prostate
[44] = test system: NCI-H522 lung
[45] = test system: CAKI-1 renal
[46] = test system: OVCAR-5 ovarian
[47] = test system: NCI-H23 lung
[48] = test system: BT-549 breast
[49] = test system: SF-268 CNS
[50] = test system: SNB-19 CNS
[51] = test system: HOP-92 NSCLC
[52] = test system: U251 CNS
[53] = test system: HT29 colon
[54] = test system: OVCAR-4 ovarian
[55] = test system: OVCAR-8 ovarian
[56] = test system: RXF 393 renal
[57] = test system: EKVX NSCLC

COc1ccc(-c2c(N)n[nH]c2-c2cc(OC)c(OC)c(OC)c2)cc1
GI50 [1]: 54.9 nM
TGI [1]: 615 nM
GI50 [2]: 23600 nM
TGI [2]: > 100000 nM
GI50 [3]: 560 nM
TGI [3]: > 100000 nM
GI50 [4]: 331 nM
TGI [4]: 22500 nM
GI50 [5]: 238 nM
TGI [5]: > 100000 nM
GI50 [6]: 275 nM
TGI [6]: > 100000 nM
GI50 [7]: 75.8 nM
TGI [7]: > 100000 nM
GI50 [8]: 73.2 nM
TGI [8]: > 100000 nM
GI50 [9]: 26.2 nM
TGI [9]: 90.7 nM
GI50 [10]: 99.3 nM
TGI [10]: 17200 nM
GI50 [11]: 25300 nM
TGI [11]: > 100000 nM
GI50 [12]: 769 nM
TGI [12]: 60500 nM
GI50 [13]: 635 nM
TGI [13]: > 100000 nM
GI50 [14]: 202 nM
TGI [14]: 865 nM
GI50 [15]: 78.2 nM
TGI [15]: 593 nM
GI50 [16]: 147 nM
TGI [16]: > 100000 nM
GI50 [17]: 58.7 nM
TGI [17]: > 100000 nM
GI50 [18]: 200 nM
TGI [18]: 2220 nM
GI50 [19]: 140 nM
TGI [19]: > 100000 nM
GI50 [20]: 135 nM
TGI [20]: > 100000 nM
GI50 [21]: 59.4 nM
TGI [21]: 18000 nM
GI50 [22]: 173 nM
TGI [22]: > 38800 nM
GI50 [23]: 644 nM
TGI [23]: > 100000 nM
GI50 [24]: 2030 nM
TGI [24]: > 100000 nM
GI50 [25]: 30.8 nM
TGI [25]: 29100 nM
GI50 [26]: 926 nM
TGI [26]: > 68700 nM
GI50 [27]: 5570 nM
TGI [27]: > 100000 nM
GI50 [28]: 388 nM
TGI [28]: 35600 nM
GI50 [29]: 47.4 nM
TGI [29]: 516 nM
GI50 [30]: 528 nM
TGI [30]: > 100000 nM
GI50 [31]: 22500 nM
TGI [31]: > 100000 nM
GI50 [32]: 216 nM
TGI [32]: > 100000 nM
GI50 [33]: 363 nM
GI50 [34]: 285 nM
TGI [34]: > 100000 nM
GI50 [35]: 286 nM
TGI [35]: 19800 nM
GI50 [36]: 110 nM
TGI [36]: > 100000 nM
GI50 [37]: 215 nM
TGI [37]: > 100000 nM
GI50 [38]: 43 nM
TGI [38]: > 100000 nM
GI50 [39]: 211 nM
TGI [39]: 52400 nM
GI50 [40]: 113 nM
TGI [40]: 10000 nM
GI50 [41]: 40 nM
TGI [41]: 187 nM
GI50 [42]: 387 nM
TGI [42]: > 100000 nM
GI50 [43]: 272 nM
GI50 [44]: 223 nM
TGI [44]: 24000 nM
GI50 [45]: 381 nM
TGI [45]: > 100000 nM
GI50 [46]: 572 nM
TGI [46]: > 100000 nM
GI50 [47]: 250 nM
TGI [47]: 43700 nM
GI50 [48]: 1410 nM
TGI [48]: > 29000 nM
GI50 [49]: 676 nM
TGI [49]: > 48400 nM
GI50 [50]: 403 nM
TGI [50]: > 100000 nM
GI50 [51]: 499 nM
TGI [51]: > 100000 nM
GI50 [52]: 276 nM
TGI [52]: > 100000 nM
GI50 [53]: 247 nM
TGI [53]: 3290 nM
GI50 [54]: 1620 nM
TGI [54]: > 100000 nM
GI50 [55]: 424 nM
TGI [55]: > 100000 nM
GI50 [56]: 239 nM
TGI [56]: 740 nM
GI50 [57]: 3860 nM
TGI [57]: > 100000 nM
